# Results: PMC10770036, “Novel dual inhibitors of PARP and HDAC induce intratumoral STING-mediated antitumor immunity in triple-negative breast cancer” (Cell Death & Disease, 2024)
# System: 4T1 tumors
# Assay: Combination with anti-PD-L1 in syngeneic murine 4T1 model
# Assay type: in vivo, mice
# Conditions: syngeneic 4T1 model; B102 15 mg/kg or B302 50 mg/kg every 2 days; anti-PD-L1 100 μg every 5 days; intraperitoneal
# Source text: MDA-MB-436 cells (5 × 10^6) were suspended in PBS and Matrigel (Corning) at a 1:1 ratio and orthotopically injected into the fat pads of 6- to 7-week-old female NOD-Prkdc^scid Il2rg^em1Smoc (M-NSG) mice from the Shanghai Model Organisms Center, Inc. MDA-MB-231 cells (5 × 10^6) were suspended in PBS orthotopically injected into the fat pads of 6- to 7-week-old female BALB/c nude mice from the Shanghai Model Organisms Center, Inc. 4T1 cells (1 × 10^6) were suspended in PBS and injected into the fat pads of 6- to 7-week-old male BALB/c mice from GemPharmatech Co., Ltd. […] For the MMTV-PyMT mice, fourteen 6-week-old female mice were randomly divided into two groups, and no blinding was performed. […] For the combination of B102 or B302 and anti-PD-L1 studies, the mice were randomly divided into four treatment groups without blinding: (1) vehicle; (2) B102 (15 mg/kg, every 2 days) or B302 (50 mg/kg, every 2 days); (3) anti-PD-L1 antibodies (100 μg, dissolved in PBS, every 5 days, Atezolizumab, Clone No.: 2B11D11, Shanghai Lollane biological technology Co., Ltd., Shanghai, China); or (4) combination of B102 or B302 and anti-PD-L1, all treatment via an intraperitoneal injection. Tumor size was monitored with a digital caliper, and tumor volume was calculated using the following equation: volume = (length × width^2)/2. […]
substance,measurement,value
"anti-PD-L1: anti-PD-L1 antibodies (Atezolizumab, Clone No.: 2B11D11), immune checkpoint blockade",tumor growth,restricted tumor growth
